Read-outs that look alike come from different tables or passages of the source.
Tests used:
[1] = test system: neonatal rat ventricular myocytes (NRVMs); test: Annexin V / propidium iodide apoptosis and cell death in NRVMs; format: cell-based
Protocol: FIGS. 5A-5B. In neonatal rat ventricular myocytes, dabuzalgron protects against apoptotic and necrotic cell death due to doxorubicin. […] Apoptosis was detected using FITC-labeled Annexin V, cell death was detected using propridium iodide, and nuclei were labeled with Hoechst. FIG. 5A. Representative epifluorescence microscopy for each treatment condition. FIG. 5B. Fluorescence intensity was analyzed using Image J software for 3 independent experiments, using at least 2 wells per condition for each experiment.
Cells were washed with cold PBS two times then incubated with 200 μl binding buffer (10 mM HEPES, 140 mM NaCl, and 2.5 mM CaCl2, pH 7.4) including 10 μL fluorescein isothiocyanate (FITC)-labeled Annexin V, 2 μL propidium iodide (PI) and 1 μg/mL Hoechst 33342 (Molecular Probes, USA) for 15 min at room temperature. They were examined under a epifluorescence microscopy (Olympus IX81 Inverted Light Microscope, UNC Microscopy Core). Images were analyzed using Image J software. The experiment was carried out three independent times with duplicates of each treatment condition. An average of 352 nuclei were counted in an average of 6 microscopic fields per experiment.

[2] = test system: TBARS (lipid peroxidation) in mouse myocardium; test: Thiobarbituric acid reactive substances (TBARS) in mouse heart tissue; format: in vivo
Text: FIGS. 3A-3E. […] FIG. 3A. […] FIG. 3B. […] FIG. 3C. […] FIG. 3E.
(§1) (FIG. 3B). […] (FIG. 3C).

mouse heart ATP content = test system: mouse heart ATP content
Protocol: FIGS. 3A-3E. […] Heart tissue was collected immediately after sacrifice on Day 7. FIG. 3A. […] Gene set analysis was performed on the DESeq2-derived statistics from an omnibus test across these four categories. […] FIG. 3B. RNA abundance for all sequenced cytochrome C oxidase subunits (25 genes), mitochondrial complex I subunits (42 genes), and ATP synthase subunits (17 genes) was aggregated by group and compared to vehicle treatment. FIG. 3C. Quantitative RT-PCR for peroxisome proliferator-activated receptor gamma coactivator 1-alpha (PGC1α) was performed on mouse heart tissue (n in individual bars) FIG. 3D. ATP content was measured in freshly harvested mouse heart tissue (total n in individual bars), then quantified relative to protein content. […] FIG. 3E. Thiobarbituric acid reactive substances (TBARS) were assayed in mouse myocardium.
as §1
Mouse hearts were removed and immediately processed for luciferin-luciferase ATP assay (ThermoFisher Scientific A22066) according to manufacturer instruction. Tissue was homogenized and heated at 95 C for 7 minutes, centrifuged at 14000 rpm for 5 minutes. Total protein in the supernatant was quantified using the Bradford Assay (Pierce #23200). Luminescence was measured at 560 nm.

ERK = ERK activation in mouse heart lysates with DOX, dabuzalgron and trametinib; format: in vivo
Text: FIGS. 4A-4F. […] The reaction was stopped immediately and lysates were blotted for total and phospho-ERK (pERK). FIG. 4A. […] FIG. 4B. […] FIG. 4C. […] The average pERK/ERK ratio for each experiment was derived from at least 2 individual wells and normalized to the pERK/ERK ratio for vehicle treated NRVMs. FIG. 4D and FIG. 4E. […] Heart lysates were blotted for pERK and ERK. Results were compared using one way ANOVA with Tukey post-test. FIG. 4F.
(§2) On Day 7, mice underwent echocardiography and were sacrificed by cervical dislocation after an overdose of isoflurane.
(§3) Homogenized tissue or cells were lysed in RIPA buffer with protease and phosphatase inhibitor (as above) and the lysate was passed through a Qiashredder. Equal protein abundance was assured with the Bradford assay (tissue lysates) or equal cell number (NRVMs). Samples were run for 2 hours at 140 v on ice on a Novex NuPAGE 4-12% Bis-Tris gel then transferred to a PVDF membrane at 90V for 1 hour on ice. Membranes were blocked in 5% milk at room temperature for 1 hour. We used Cell Signaling kit #9100 (pERK Thr202/Tyr204 1:250, ERK 1:1000, anti-rabbit HRP 1:1000). BID: (Santa Cruz, SC-11423); Cytochrome C: (Santa Cruz, SC-13560); AIF: (Santa Cruz, SC-13116); Caspase 8: (MBL international corporation, JM-3020-100); PARP: (Cell Signaling, #9532); Caspase 3: (Cell Signaling, #9665); Cleaved caspase 3: (Cell Signaling, #9664)

[3] = test system: cytochrome c, caspases, PARP; test: Immunoblot for cytochrome c and downstream effectors of apoptosis in NRVMs; format: cell-based, rat; details: NRVM lysates, 4 hours
Protocol: FIG. 6A-6C. […] FIG. 6A. Mitochondrial membrane potential was assessed using JC-1 and fluorescent intensity was quantified using a plate reader. Red indicates intact mitochondrial membrane potential; green indicates compromised mitochondrial membrane potential (relative). Lysates were blotted for selected regulators of apoptosis and mitochondrial cell death effectors.
as §3

wild type (WT) mice = test: Doxorubicin cardiotoxicity in wild type mice (survival, anatomy, conscious echocardiography, fibrosis)
Text: FIGS. 2A-2B. […] On Day 7 the mice underwent echocardiography prior to sacrifice. FIG. 2A. Fractional shortening, a measure of contractile function, with representative M-mode echocardiogram images. […] FIG. 2B. Heart sections from some of these mice (i.e. wild type mice) stained with Masson Trichrome. Fibrosis (weighted average collagen content) was quantified using Aperio ImageScope software.
as §2
Conscious transthoracic echocardiography was performed on loosely restrained mice in the McAllister Heart Institute Animal Models Core using a VisualSonics Vevo 2100 ultrasound system (VisualSonics, Inc., Toronto, Ontario, Canada). Two-dimensional and M-mode echocardiography were performed in the parasternal long-axis view at the level of the papillary muscle. Left ventricular systolic function was assessed by fractional shortening (% FS=[(LVEDD−LVESD)/LVEDD]×100). Reported values represent the average of at least five cardiac cycles per mouse. Sonographers and investigators were blinded to mouse treatment condition during image acquisition and analysis.
Mice were heparinized and the heart was perfused with 10 mL PBS followed by 20 mL of 4% PFA/PBS through a 23 G butterfly needle, excised and placed in 4% PFA/PBS for 24 hours then transferred to 70% EtOH. Hearts were stained using standard methods in the UNC Histology Research Core. Fibrosis was analyzed in 3 Masson Trichrome (MT)-stained sections of 4 or 5 hearts from each treatment group. Slides were scanned using an Aperio ScanScope (Aperio Technologies, Vista, Calif.) and analyzed in Aperio ImageScope software. The Algorithm Positive Pixel Count v9 was used to measure collagen staining by MT using hue value (0.66) and hue width (0.1) The N positive/N total value was used to determine a weighted average collagen content (%) for each section.

[4] = NRVMs, DOX, four hour treatment
[5] = WT mice, dabuzalgron after DOX, Day 7
[6] = wild type mice, Dox 20 mg/kg i.p. + dabuzalgron 20 μg/kg/d gavage 7 days
[7] = wild type mice, Dox + 1240 20 μg/kg/d, Day 7 echocardiography

COc1cccc2c1C(=O)c1c(O)c3c(c(O)c1C2=O)C[C@@](O)(C(=O)CO)C[C@@H]3O[C@H]1C[C@H](N)[C@H](O)[C@H](C)O1 [DOX, doxorubicin]
apoptosis (Annexin V staining) [1, 4]: increased | necrotic cell death (costaining with Annexin V and propidium iodide) [1, 4]: increased | TBARS abundance ([2]; hearts of mice treated with DOX): more abundant | decrease in ATP content compared to untreated hearts (mouse heart ATP content; mouse, in vivo): 23±7% | ERK activation in heart (ERK; mice treated with DOX): reduced | cleavage of caspases and PARP ([3]; doxorubicin 2 μM): caused cleavage | cytochrome c release ([3]; doxorubicin 2 μM): increased | burden of fibrosis, Masson Trichrome (wild type (WT) mice; mouse, in vivo): increased significantly | contractile function, conscious echocardiography (wild type (WT) mice; mouse, in vivo): decrease | 7-day survival (wild type (WT) mice; wild type mice, Dox 20 mg/kg i.p. + vehicle gavage 7 days): 78% | 7-day survival (wild type (WT) mice; wild type mice, Dox 20 mg/kg i.p. + vehicle gavage 7 days, listed as Dox): 78%

Cc1c(OCC2=NCCN2)ccc(Cl)c1NS(C)(=O)=O [dabuzalgron, N-[6-chloro-3-(4,5-dihydro-1H-imidazol-2-ylmethoxy)-2-methylphenyl]methanesulfonamide]
Annexin V or propidium iodide staining vs untreated cells [1]: did not change | effect on DOX-induced necrotic cell death ([1]; NRVMs, DOX 204 with dabuzalgron 1004, four hours): abrogated | effect on DOX-induced apoptosis ([1]; NRVMs, DOX with dabuzalgron 1004, four hours): abrogated | TBARS content ([2]; co-administration of dabuzalgron with DOX): normalized | ATP content (mouse heart ATP content; hearts of DOX-treated mice): restored | ATP content (mouse heart ATP content; uninjured mice): did not affect | effect on DOX-induced reduction of ERK activation (ERK; mice, DOX + dabuzalgron): partially mitigated | ERK activation after trametinib (ERK; mice, DOX, dabuzalgron and trametinib): could not restore | effect on DOX-induced cytochrome c release and cleavage of caspases and PARP ([3]; doxorubicin 2 μM with Dabuzalgron 10 μM): abrogated | effect of dabuzalgron on DOX-induced decrease in survival (wild type (WT) mice; DOX 20 mg/kg i.p., dabuzalgron 10 μg/kg twice daily 7 days): not fully mitigated | effect on DOX-induced decrease in contractile function (wild type (WT) mice; WT mice, Day 7, dabuzalgron after DOX): prevented | fractional shortening after DOX (wild type (WT) mice; [5]): preserved | left ventricular end systolic volume after DOX (wild type (WT) mice; [5]): preserved | effect on DOX-induced increase in fibrosis (wild type (WT) mice; WT mouse heart sections, dabuzalgron after DOX): mitigated | echocardiographic parameters (wild type (WT) mice; mouse, in vivo): no effect | 7-day survival (wild type (WT) mice; [6]): 86% | Body Wt Day 7 (wild type (WT) mice; [6]): 24.3 ± 0.6 g | HW/BW (wild type (WT) mice; [6]): 0.41 ± 0.02 % | HW/TL (wild type (WT) mice; [6]): 5.5 ± 0.3 mg/mm | Heart Wt (wild type (WT) mice; [6]): 97 ± 5 mg | Lung Wt/TL (wild type (WT) mice; [6]): 7.7 ± 0.4 mg/mm | FS (Fractional Shortening) (wild type (WT) mice; [7]): 53 ± 1 % | HR (Heart Rate) (wild type (WT) mice; [7]): 667 ± 10 beats per minute | LVs vol (Left Ventricular systolic volume) (wild type (WT) mice; [7]): 5 µL | PWd (Posterior Wall, diastole) (wild type (WT) mice; [7]): 0.9 mm

Source: patent publication US11213514B2, “Alpha-1-adrenergic receptor agonist therapy” (The Regents of the University of California, priority 2016, dated 2022)
